Data published in patent publication US20090252708A1, “Biotherapeutic compositions comprising probiotic escherichia coli and uses thereof” (Biobalance LLC, priority 2006, published 2009).

Experiments:
[1] = tested on: DSS-induced colitis; assay: Acute DSS-induced colitis in mice: DAI, body weight, stools, colon length and weight, tolerability; format: in vivo, C57BL/6 mice; conditions: for DAI (table title: DAT Time Course Data): DSS days 7-13; for mice with weight loss: weight loss defined as >1%
Description: Mice were dosed once daily for a period of 13 days by oro-gastric gavage with a 20 gauge, one-inch long needle (Popper & Sons, New Hyde Park, N.Y.). Dosages comprised either 40 mg/kg dose of metronidazole or 5×10^9 CFU/ml probiotic solution. A 0.6% saline solution was administered as a control.
Disease Activity Indices (DAIs) were determined either daily or on alternate days, by evaluation of stool consistency and occult blood in the stool and weight loss on a standardized severity scale, as shown in Table 1 (Murthy, 1993).
Disease Activity Index (DAI) Calculation: The individual scores for weight loss, stool consistency, and occult blood/bleeding are determined, and divided by 3 to determine a mean DAI for the mouse. For example, if an animal lost 12% of the initial body weight [score=3], had evidence of diarrhea [score=4], and evidence of gross rectal bleeding [score=4], the mean DAI would be 3±4±4=11/3=3.7
In Example 3, weight loss was not very evident in the DSS-treated mice. Therefore, a modified DAI calculation was used. The modfied DAIs were calculated similarly to the DAIs of Table 1, but only the stool consistency and occult blood components were used for this determination.
Colitis was then induced by providing the mice with a solution of 2% DSS (w/v) dissolved in the filtered water for days 7 to 13 of the study. One group of mice received water without DSS. Water consumption and body weight were recorded throughout the study.
(§1) On day 13 of the study, animals were euthanized by exposure to carbon dioxide. The colon was rapidly removed and the total colon length was determined to the nearest 0.1 cm. Typically, a 2.5 cm segment of distal colon was fixed in 10% buffered formalin, for a subsequent histological evaluation (see below). The adjacent 2.5 cm segment of colon was weighed and then frozen in liquid nitrogen. This segment of colon was used for the evaluation of colonic MPO, as well as colonic cytokine levels.
Control mice received 0.6% saline.

[2] = tested on: colonic MPO; assay: Colonic myeloperoxidase (TMB method) in DSS colitis; format: in vivo, C57BL/6 mice; conditions: day 13, M-17 5×10^9 CFU/ml, metronidazole 40 mg/kg
Description: as §1
The 2.5 segment of colon was homogenized for about 30 seconds in 0.5 ml of molecular biology grade distilled water, using a hand-held tissue homogenizer (TissueMiser) from Fisher Scientific (Pittsburgh, Pa.). The homogenate was then centrifuged at 10,000 RPM at 4° C. for 15 minutes. The pellet was resuspended in hexadecyltrimethylammonium bromide (HTAB) buffer (pH 6.0), for the measurement of colonic MPO. MPO was assayed by the tetramethylbenzidine (TMB) method (Fitzpatrick, 2000).

[3] = tested on: IL-1β; assay: Colonic cytokine ELISA in DSS colitis: IL-1β; format: in vivo, C57BL/6 mice; conditions: day 13, M-17 5×10^9 CFU/ml, metronidazole 40 mg/kg
Description: as §1
(§2) The supernatant fraction from the colonic homogenate (see above) was aliquoted into appropriate test tubes and frozen at −70° C. Subsequently, the supernatants were used to measure relevant pro-inflammatory cytokines [e.g., IFN-γ, IL-1β, TNF-α, IL-12] using commercially available mouse ELISA kits (Fitzpatrick 2000). The data was typically expressed as pg/2.5 cm of colon.

[4] = tested on: IFN-γ; assay: Colonic cytokine ELISA in DSS colitis: IFN-γ; format: in vivo, C57BL/6 mice; conditions: day 13, M-17 5×10^9 CFU/ml, metronidazole 40 mg/kg
Description: as §1, §2

[5] = tested on: IL-12; assay: Colonic cytokine ELISA in DSS colitis: IL-12; format: in vivo, C57BL/6 mice; conditions: day 13, M-17 5×10^9 CFU/ml, metronidazole 40 mg/kg
Description: as §1, §2

[6] = tested on: IL-6; assay: Colonic cytokine ELISA in DSS colitis: IL-6; format: in vivo, C57BL/6 mice; conditions: day 13, M-17 5×10^9 CFU/ml, metronidazole 40 mg/kg
Description: as §1, §2

[7] = tested on: IL-10; assay: Colonic cytokine ELISA in DSS colitis: IL-10; format: in vivo, C57BL/6 mice; conditions: day 13, M-17 5×10^9 CFU/ml, metronidazole 40 mg/kg
Description: as §1, §2

[8] = tested on: distal colon histological damage; assay: Colonic histology score in DSS colitis; format: in vivo, C57BL/6 mice; conditions: day 13, M-17 5×10^9 CFU/ml, metronidazole 40 mg/kg
Description: Distal colonic specimens were processed by standard methods and embedded in paraffin by the Histology core facility at the Penn State University College of Medicine. Microscope slides were coded. Using coded hematoxylin-eosin H&E slides (1 slide per mouse) from the distal colon, colonic histology scores were determined from six different areas on the slide (Williams, 2001; Krieglstein, 2001). A mean total histology score value was calculated for each mouse.
Total Histology Scores were determined by multiplying the percent involvement for each of the 3 different histological features by the area of involvement. Using this scoring system, the minimal score=0 and the maximal score=40. The percent involvement was determined with a 25 mm ocular grid attached to an Olympus CH light microscope. The histological evaluation was performed at a 400× magnification.

[9] = tested on: individual isolates of the aerobic and facultative gram positive and gram negative flora; assay: Metronidazole ex vivo on fecal isolates; format: cell-based; conditions: ex vivo at 50 μg/ml
[10] = tested on: E. coli ATCC 202226; assay: Kirby-Bauer disc diffusion; format: cell-based, Escherichia coli; conditions: 50 μg metronidazole paper disc, Mueller-Hinton Agar, overnight
Description: The Kirby-Bauer disc diffusion method was used to determine the relative sensitivity of E. coli ATCC 202226 to metronidazole (Bauer, 1966). Five colonies of E. coli ATCC 202226 were picked from trypticase soy agar (TSA) using a sterile inoculation loop and suspended in trypticase soy broth (TSB). The TSB culture was grown for 6 hours at 37° C./200 rpm. This culture was diluted in TSB to match a 0.5 McFarland turbidity standard prior to saturating a sterile cotton swab and streaking the culture onto the surface of a Mueller-Hinton Agar plate. After allowing the surface of the plate to dry, a 50 μg metronidazole paper disc (Oxoid) was placed on the lawn. The plate was incubated overnight and the zone of inhibition was recorded.

[11] = tested on: TNF-α, IL-1β and IL-6; assay: RAW 264.7 macrophages: cytokine secretion, cytokines not told apart; format: cell-based, mouse; conditions: metronidazole 50 μg/ml; heat-killed M-17 1×10^8 CFU/ml; conditioned media 10% (v/v)
Description: The RAW 264.7 mouse macrophage cell line was obtained from American Type Culture Collection (ATCC). RAW 264.7 cells were grown in Dulbecco's Modified Eagle's Medium (DMEM) containing 10% FBS (Fetal Bovine Serum). The lipopolysaccharide (LPS) stimulation studies were conducted at a cell density of 2×10^6/ml. […] For the NF-κB p65 measurement, nuclear extracts were obtained from cells either immediately (0 hours) or 3 hours after LPS-stimulation. A protein determination of the nuclear extracts was done with the Bio-Rad protein assay (Bio-Rad Laboratories). For the p65 analysis, 10 μg of protein was utilized per sample. The nuclear binding of p65 was measured with the TransAM™ NF-κB p65 assay kit, according to the manufacturer's instructions.
For the cytokine secretion experiments, after 0 or 4 hours of LPS exposure, the culture medium was collected for the measurement of cytokines (TNF-α, IL-1β and IL-6) by ELISA (Pierce-Endogen), according to the manufacturer's directions. […] The media was then collected and centrifuged at 10,000 RPM for 10 minutes. Next, the CM was passed through a 0.22 micron filter prior to use in cytokine secretion experiments. […] The pellet was then resuspended in a sufficient quantity of saline to achieve a final concentration of 1×10^8 CFU/ml. […] In some experiments, we also evaluated whether metronidazole ([…]) could inhibit cytokine secretion.

[12] = after single, intravenous infusion; cited from earlier work
[13] = day 13, M-17 5×10^9 CFU/ml, metronidazole 40 mg/kg, DSS

**Q.** What does the source list for Cc1ncc([N+](=O)[O-])n1CCO [metronidazole, 1-(beta-hydroxyethyl)-2-methyl-5-nitroimidazole]?
**A.** reduction in mean DAI score compared with DSS-treated mice that received vehicle ([1]; day 13, M-17 5×10^9 CFU/ml, metronidazole 40 mg/kg): 47.4%; Colon length [1, 13]: 6.8±0.2 cm; Colon wt. [1, 13]: 70 ± 3 mg/2.5 cm; Colon length ([1]; day 13, M-17 5×10^9 CFU/ml, metronidazole 40 mg/kg, DSS, listed as Metro): 6.8 ± 0.2 cm; Modified DAI (0-4) ([1]; day 13, stool consistency and occult blood only, M-17 5×10^9 CFU/ml, metronidazole 40 mg/kg): 1.0 ± 0.2; DAI (table title: DAT Time Course Data) ([1]; study day 0, M-17 5×10^9 CFU/ml, metronidazole 40 mg/kg): 0 ± 0; DAI (table title: DAT Time Course Data) ([1]; study day 2, M-17 5×10^9 CFU/ml, metronidazole 40 mg/kg): 0 ± 0; DAI (table title: DAT Time Course Data) ([1]; study day 4, M-17 5×10^9 CFU/ml, metronidazole 40 mg/kg): 0.3 ± 0.2; DAI (table title: DAT Time Course Data) ([1]; study day 6, M-17 5×10^9 CFU/ml, metronidazole 40 mg/kg): 0.2 ± 0.1; DAI (table title: DAT Time Course Data) ([1]; study day 8, M-17 5×10^9 CFU/ml, metronidazole 40 mg/kg): 0.1 ± 0.1; DAI (table title: DAT Time Course Data) ([1]; study day 10, M-17 5×10^9 CFU/ml, metronidazole 40 mg/kg): 0.7 ± 0.2; DAI (table title: DAT Time Course Data) ([1]; study day 12, M-17 5×10^9 CFU/ml, metronidazole 40 mg/kg): 0.6 ± 0.2\; DAI (table title: DAT Time Course Data) ([1]; study day 13, M-17 5×10^9 CFU/ml, metronidazole 40 mg/kg): 1.0 ± 0.2\; mice with weight loss ([1]; DSS-phase (days 7-13)): 30%; mice with weight loss ([1]; figures given before those of the DSS-phase): 50%; MPO [2]: 4.3 ± 1.0 U/2.5 cm; IL-1β [3]: 359 ± 85 pg/2.5 cm; IFN-γ [4]: 56 ± 28 pg/2.5 cm; IL-12 [5]: 32 ± 2 pg/2.5 cm; IL-6 [6]: 372 ± 75 pg/2.5 cm; IL-10 [7]: 91 ± 7 pg/2.5 cm; Histology Score (0-40) [8]: 12.4 ± 0.9; inhibition of individual isolates [9]: did not inhibit; zone of inhibition [10]: No zone of inhibition; LPS-stimulated cytokine secretion [11]: did not reduce; half-life [12]: 7.3 ± 1.0 h
